Measured values: patent US20090061515A1, “Methods of inhibiting or suppressing cellular proliferation” (priority 2007, published 2009)

What was measured:
Format in all cases: cell-based
[1] = system: human umbilical vein endothelial cells (HUVEC); assay: Cell migration after 48 hours exposure, HUVEC (Example 6); details: 10 mg/ml and 1 mg/ml
Protocol: (§1) Evaluation of the effects of 5,6-dihydroxy-hexan-2-one on human umbilical vein endothelial cells (HUVEC) and Glioblastoma/Astrocytoma cells U87 cellular proliferation and migration during 120 hours following 48 hour exposure to 5,6-dihydroxy-hexan-2-one at concentration of 10 mg/ml, 1 mg/ml, 100 micrograms/ml. Controls were cells not exposed to the agent.
(§2) In order to further explore the effects of this compound, experiments to evaluate the dose-effect response on the antiproliferative effect and on cell migration were conducted on two cell lines, human umbilical vein endothelial cells (HUVEC) and Glioblastoma/Astrocytoma cells (U87), over 120 hours after 48 hours of exposure to the compound.
FIGS. 23(a)-(l) are pictures that visually display the migration over time of human umbilical vein endothelial cells (HUVEC) after 48 hours exposure to various concentrations of 5,6-dihydroxy-hexan-2-one. Specifically, FIGS. 23(a)-(d) represent the control, FIGS. 23(e)-(h) represent 10 mg/ml, and FIGS. 23(i)-(l) represent 1 mg/ml 5,6-dihydroxy-hexan-2-one. FIGS. 23(a), (e), and (i) represent migration after 2 hours; FIGS. 23(b), (f), and (j) represent migration after 14 hours; FIGS. 23(c), (g), and (k) represent migration after 20 hours; and FIGS. […], (h), and (l) represent migration after 48 hours.

[2] = system: Normal Human Dermal Fibroblast (NHDF) cells; assay: Cell migration into scraped monolayer, NHDF (Example 5); details: 1 and 10 mg/ml, 48 hours exposure then 72 hours growth
Protocol: In a similar manner, cell migration was explored in vitro by scraping the cell monolayer and culturing the cells in the presence of 5,6-dihydroxy-hexan-2-one at concentrations of 1 mg/ml and 10 mg/ml. FIGS. 20(a)-(l) are pictures that visually display the migration of coronary artery smooth muscle cells (CASMC) (FIGS. 20(a)-(f)) and normal human dermal fibroblast (NHDF) cells (FIGS. 20(g)-(l)) exposed to various concentrations of 5,6-dihydroxy-hexan-2-one after 48 hours exposure, then cultured an additional 72 hours after removal of the 5,6-dihydroxy-hexan-2-one as described in Example 5. Specifically, FIGS. 20(a) and (b) represent the CASMC control at time zero and 72 hours, respectively; FIGS. 20(c) and (d) represent CASMC (10 mg/ml) at time zero and 72 hours, respectively; and FIGS. 20(e) and (f) represent CASMC (1 mg/ml) at time zero and 72 hours, respectively. FIGS. 20(g) and (h) represent the NHDF cell control at time zero and 72 hours, respectively; FIGS. 20(i) and (j) represent NHDF cells (10 mg/ml) at time zero and 72 hours, respectively; and FIGS. 20(k) and (l) represent NHDF cells (1 mg/ml) at time zero and 72 hours, respectively.
Cell migration judged by the ability of cells to repopulate the scraped “acellular” space over time indicated no microscopically identifiable effect by the agent at the concentrations tested. […]

[3] = system: human Glioblastoma/Astrocytoma U87 cells; assay: CyQuant cell proliferation after 48 hour exposure, U87 (Example 6); details: for cell proliferation: 48 hour exposure
Protocol: as §1, §2
A cell proliferation assay available under the trade designation CyQuant from Invitrogen Corporation (Carlsbad, Calif.) determines the density of cells in culture by using a green fluorescent dye which fluoresces when bound to cellular nucleic acids.

[4] = system: human Glioblastoma/Astrocytoma U87 cells; assay: Cell migration after 48 hours exposure, U87 (Example 6); details: U87, 10 mg/ml and 1 mg/ml
Protocol: as §1, §2
FIGS. 24(a)-(l) are pictures that visually display the migration over time of human Glioblastoma/Astrocytoma U87 cells after 48 hours exposure to various concentrations of 5,6-dihydroxy-hexan-2-one. Specifically, FIGS. 24(a)-(d) represent the control, FIGS. 24(e)-(h) represent 10 mg/ml, and FIGS. 24(i)-(l) represent 1 mg/ml 5,6-dihydroxy-hexan-2-one. FIGS. 24(a), (e), and (i) represent migration after 2 hours; FIGS. 24(b), (f), and (j) represent migration after 14 hours; FIGS. 24(c), (g), and (k) represent migration after 20 hours; and FIGS. […], (h), and (l) represent migration after 48 hours.

[5] = system: coronary artery smooth muscle cells (CASMC); assay: Cell proliferation and viability assays (CyQuant, CellTiter-Glo, CellTiter 96), CASMC (Example 5); details: 48 hours
From the text: Multiple assays were used to test a variety of cellular properties expressed after exposure of different cells types to 5,6-dihydroxy-hexan-2-one. A cell proliferation assay available under the trade designation CyQuant from Invitrogen Corporation (Carlsbad, Calif.) determines the density of cells in culture by using a green fluorescent dye which fluoresces when bound to cellular nucleic acids. The amount of nucleic acid present is proportional to the amount of living cells in culture. […]
The amount of ATP present is proportional to the measured amount of a luminescent signal and therefore the amount of viable cells. […] The absorbance read is proportional to the amount of metabolic activity present in the cells.
Normal human dermal fibroblast (NHDF) cells and coronary artery smooth muscle cells (CASMC) in culture were exposed to 5,6-dihydroxy-hexan-2-one at concentrations of 10 microgram/ml, 1 mg/ml, and 10 mg/ml, for 48 hours, after which the cell culture wells were analyzed for cell proliferation and viability. […] FIG. 17 is a graphical representation of fibroblast cell numbers measured after 48 hours exposure to different concentrations of 5,6-dihydroxy-hexan-2-one. FIG. 18 is a graphical representation of smooth muscle cell numbers measured after 48 hours exposure to different concentrations of 5,6-dihydroxy-hexan-2-one. […]

## CC(=O)CCC(O)CO (centres unmarked) [5,6-dihydroxy-hexan-2-one]
[1]
  cell migration: did not shown differences
[2]
  cell migration: not affected
[3]; U87, 10 mg/ml
  cell proliferation: antiproliferative effects
[3]; U87, 10 mg/ml, after 48 hour exposure
  time after withdrawal at which inhibitory effect was still observed: ≥ 120 h
[3]; U87, lowest concentration evaluated (100 micrograms/ml)
  cell proliferation: no antiproliferative effects
[4]
  cell migration: did not shown differences
[5]; 10 mg/ml
  cell proliferation: inhibition of cell proliferation
[5]; other concentrations (10 microgram/ml, 1 mg/ml)
  cell proliferation: did not show this effect
